# Values of other authors as cited in patent US10314326B2, “Composition for reducing food intake” (Natures Remedies Ltd, priority 2009, dated 2019).
# Like-named read-outs stand apart in the source and are kept apart here. No end group written: not given here.
# Assays:
# [1] = literature; for reduction in food/calorie intake: pharmacological options
# [2] = approximately 20 g per day for 7 days, human volunteers
# [3] = peripheral injection, rats
# [4] = peripheral injection, human subjects
# [5] = 14 healthy volunteers
compound,measurement,setting,value
oligofructose,reduction in total intake,[1]; human studies,5%
same,serum GLP-1 levels,[2],increased
beta-glucan,food intake and appetite ratings,[1],not significantly reduced
fructooligosaccharides,food intake and appetite ratings,[1],not significantly reduced
"O=C(O)CC(O)(C(=O)O)C(O)C(=O)O (stereo not drawn) [HCA-SX, hydroxycitric acid]",decrease in food intake,[1]; human studies,4%
CC(C)CC(N(C)C)C1(c2ccc(Cl)cc2)CCC1 (stereo not drawn) [sibutramine],reduction in food/calorie intake,[1],12-26%
sodium alginate,reduction in energy intake,[1]; human studies,7%
CNCCC(Oc1ccc(C(F)(F)F)cc1)c1ccccc1 (stereo not drawn) [fluoxetin],reduction in food/calorie intake,[1],13-16%
methylcellulose,food intake and appetite ratings,[1],not significantly reduced
CCN(CC)C(C)C(=O)c1ccccc1 (stereo not drawn) [diethylpropion],reduction in food/calorie intake,[1],11-15%
"glucagon-like peptide-1 (7-36) amide (HAEGTFTSDVSSYLEGQAAKEFIAWLVKGR-NH2; UniProt P01275 98-127, looked up) [GLP-1, anorectic gut peptide secreted by the L-cells]",body weight,[3],decreases
same,food intake,[3],decreases
same,body weight,[4],decreases
same,food intake,[4],decreases
same,motility in the antro-duodeno-jejunal region,[5],decreases
